Structures are written as SMILES. pIC50: −log10 of the molar value. Calls of active or inactive are those of the source. The rule behind the calls is not given here.

As usually defined, the pIC50 is −log10 of the IC50, conventionally taken in molar units.

Data set [1] deals with MONO-MAC-6. Briefly: Inhibition of LPS/INF-gamma induced CXCL10 promoter dependent transcription activity in human MONO-MAC-6 cells measured after 4 hrs by luciferase reporter gene assay. Format: functional.
Data set [2] in a line: Effect on constitutive activity of EF-1alpha expressed in human MONO-MAC-6 cells up to 50 uM measured after 4 hrs by luciferase reporter gene assay. Format: ADME, cell-based. Conditions: mono-mac-6, 4 h.
A short description of data set [3]: Cytotoxicity against human MONO-MAC-6 cells up to 50 uM measured after 24 hrs by XTT assay. Format: toxicity, cell-based. As to conditions: mono-mac-6, 24 h.
Data set [4] can be described thus: Inhibition of NF-kappaB (unknown origin) expressed in LPS/INF-gamma-stimulated human MONO-MAC-6 cells measured after 4 hrs by luciferase reporter gene assay. It counts as cell-based. Conditions: MONO-MAC-6, 4 h. In general terms: Reporter assays use an easily measured gene product as a stand-in for the process of interest.
The nature of data set [5]: Inhibition of IRF (unknown origin) expressed in LPS/INF-gamma-stimulated human MONO-MAC-6 cells assessed as reduction in ISRE dependent transcription activity measured after 4 hrs by luciferase reporter gene assay. It counts as cell-based. Conditions: MONO-MAC-6, 4 h.
Data set [6] deals with MONO-MAC-6. Briefly: Inhibition of human THP1 cells derived IL-8 promoter dependent transcription activity expressed in LPS/INF-gamma stimulated human MONO-MAC-6 cells measured after 4 hrs by luciferase reporter gene assay. As to conditions: MONO-MAC-6, 4 h. It counts as functional, cell-based.
Data set [7] in a line: Down regulation of TNF-alpha mRNA expression in LPS/INF-gamma stimulated human MONO-MAC-6 cells at 3.8 uM preincubated for 1 hr followed by LPS/INF-gamma stimulation measured after 4 hrs by quantitative RT-PCR analysis. Format: functional, cell-based.
The nature of data set [8]: Down regulation of IL-6 mRNA expression in LPS/INF-gamma stimulated human MONO-MAC-6 cells at 3.8 uM preincubated for 1 hr followed by LPS/INF-gamma stimulation measured after 4 hrs by quantitative RT-PCR analysis. Format: functional, cell-based.
Data set [9] in a line: Down regulation of […] mRNA expression in LPS/INF-gamma stimulated human MONO-MAC-6 cells at 3.8 uM preincubated for 1 hr followed by LPS/INF-gamma stimulation measured after 4 hrs by quantitative RT-PCR analysis. It counts as functional, cell-based.
Data set [10] is described as follows: Down regulation of COX-2 mRNA expression in LPS/INF-gamma stimulated human MONO-MAC-6 cells at 3.8 uM preincubated for 1 hr followed by LPS/INF-gamma stimulation measured after 4 hrs by quantitative RT-PCR analysis. Format: functional, cell-based.
Data set [11] is described as follows: Down regulation of CCL2 mRNA expression in LPS/INF-gamma stimulated human MONO-MAC-6 cells at 3.8 uM preincubated for 1 hr followed by LPS/INF-gamma stimulation measured after 4 hrs by quantitative RT-PCR analysis. Format: functional, cell-based.
The nature of data set [12]: Down regulation of IL-8 mRNA expression in LPS/INF-gamma stimulated human MONO-MAC-6 cells at 3.8 uM preincubated for 1 hr followed by LPS/INF-gamma stimulation measured after 4 hrs by quantitative RT-PCR analysis. It counts as functional, cell-based.
Data set [13] concerns MONO-MAC-6. Briefly: Inhibition of IL-6 mRNA expression in LPS/INF-gamma stimulated human MONO-MAC-6 cells at 3.8 uM preincubated for 1 hr followed by LPS/INF-gamma stimulation measured after 16 hrs. Format: functional, cell-based.
Data set [14] relates to MONO-MAC-6. Briefly: Inhibition of TNF-alpha mRNA expression in LPS/INF-gamma stimulated human MONO-MAC-6 cells at 3.8 uM preincubated for 1 hr followed by LPS/INF-gamma stimulation measured after 16 hrs. It counts as functional, cell-based.
For data set [15], the system named is MONO-MAC-6. Briefly: Inhibition of IL-23 mRNA expression in LPS/INF-gamma stimulated human MONO-MAC-6 cells at 3.8 uM preincubated for 1 hr followed by LPS/INF-gamma stimulation measured after 16 hrs. Format: functional, cell-based.
Data set [16] relates to MONO-MAC-6. The experiment in a line: Inhibition of CXCL1 mRNA expression in LPS/INF-gamma stimulated human MONO-MAC-6 cells at 3.8 uM preincubated for 1 hr followed by LPS/INF-gamma stimulation measured after 16 hrs. It counts as functional, cell-based.
In data set [17] the test system is MONO-MAC-6. Briefly: Inhibition of CXCL10 mRNA expression in LPS/INF-gamma stimulated human MONO-MAC-6 cells at 3.8 uM preincubated for 1 hr followed by LPS/INF-gamma stimulation measured after 16 hrs. It counts as functional, cell-based.
In data set [18] the test system is MONO-MAC-6. Briefly: Inhibition of CXCL11 mRNA expression in LPS/INF-gamma stimulated human MONO-MAC-6 cells at 3.8 uM preincubated for 1 hr followed by LPS/INF-gamma stimulation measured after 16 hrs. Format: functional, cell-based.
In data set [19] the test system is MONO-MAC-6. Briefly: Inhibition of IL-8 mRNA expression in LPS/INF-gamma stimulated human MONO-MAC-6 cells at 3.8 uM preincubated for 1 hr followed by LPS/INF-gamma stimulation measured after 16 hrs. Format: functional, cell-based.
Data set [20] has as its system MONO-MAC-6. The experiment in a line: Inhibition of CCL1 mRNA expression in LPS/INF-gamma stimulated human MONO-MAC-6 cells at 3.8 uM preincubated for 1 hr followed by LPS/INF-gamma stimulation measured after 16 hrs. Format: functional, cell-based.
The test system of data set [21] is MONO-MAC-6. The experiment in a line: Inhibition of CCL3 mRNA expression in LPS/INF-gamma stimulated human MONO-MAC-6 cells at 3.8 uM preincubated for 1 hr followed by LPS/INF-gamma stimulation measured after 16 hrs. Format: functional, cell-based.
Data set [22] in a line: Effect on GAPDH mRNA expression in human MONO-MAC-6 cells at 2.52 to 3.8 uM preincubated for 1 hr followed by LPS/INF-gamma stimulation measured after 4 hrs by quantitative RT-PCR analysis. It counts as ADME, cell-based. Conditions: mono-mac-6, 4 h.
A short description of data set [23]: Down regulation of TNF-alpha mRNA expression in LPS/INF-gamma stimulated human MONO-MAC-6 cells at 30 uM preincubated for 1 hr followed by LPS/INF-gamma stimulation measured after 4 hrs by quantitative RT-PCR analysis. Format: functional, cell-based.
Data set [24] can be described thus: Down regulation of IL-6 mRNA expression in LPS/INF-gamma stimulated human MONO-MAC-6 cells at 30 uM preincubated for 1 hr followed by LPS/INF-gamma stimulation measured after 4 hrs by quantitative RT-PCR analysis. Format: functional, cell-based.
Data set [25] is described as follows: Down regulation of […] mRNA expression in LPS/INF-gamma stimulated human MONO-MAC-6 cells at 30 uM preincubated for 1 hr followed by LPS/INF-gamma stimulation measured after 4 hrs by quantitative RT-PCR analysis. It counts as functional, cell-based.
A short description of data set [26]: Down regulation of COX-2 mRNA expression in LPS/INF-gamma stimulated human MONO-MAC-6 cells at 30 uM preincubated for 1 hr followed by LPS/INF-gamma stimulation measured after 4 hrs by quantitative RT-PCR analysis. It counts as functional, cell-based.
The nature of data set [27]: Down regulation of CCL2 mRNA expression in LPS/INF-gamma stimulated human MONO-MAC-6 cells at 30 uM preincubated for 1 hr followed by LPS/INF-gamma stimulation measured after 4 hrs by quantitative RT-PCR analysis. It counts as functional, cell-based.
Data set [28] can be described thus: Down regulation of IL-8 mRNA expression in LPS/INF-gamma stimulated human MONO-MAC-6 cells at 30 uM preincubated for 1 hr followed by LPS/INF-gamma stimulation measured after 4 hrs by quantitative RT-PCR analysis. Format: functional, cell-based.
The subject of data set [29] is MONO-MAC-6. The experiment in a line: Inhibition of IL-6 mRNA expression in LPS/INF-gamma stimulated human MONO-MAC-6 cells at 30 uM preincubated for 1 hr followed by LPS/INF-gamma stimulation measured after 16 hrs. Format: functional, cell-based.
Data set [30] concerns MONO-MAC-6. The experiment in a line: Inhibition of TNF-alpha mRNA expression in LPS/INF-gamma stimulated human MONO-MAC-6 cells at 30 uM preincubated for 1 hr followed by LPS/INF-gamma stimulation measured after 16 hrs. It counts as functional, cell-based.
Data set [31] has as its system MONO-MAC-6. The experiment in a line: Inhibition of IL-23 mRNA expression in LPS/INF-gamma stimulated human MONO-MAC-6 cells at 30 uM preincubated for 1 hr followed by LPS/INF-gamma stimulation measured after 16 hrs. It counts as functional, cell-based.
Data set [32] has as its system MONO-MAC-6. The experiment in a line: Inhibition of CXCL1 mRNA expression in LPS/INF-gamma stimulated human MONO-MAC-6 cells at 30 uM preincubated for 1 hr followed by LPS/INF-gamma stimulation measured after 16 hrs. It counts as functional, cell-based.
Data set [33] concerns MONO-MAC-6. The experiment in a line: Inhibition of CXCL10 mRNA expression in LPS/INF-gamma stimulated human MONO-MAC-6 cells at 30 uM preincubated for 1 hr followed by LPS/INF-gamma stimulation measured after 16 hrs. Format: functional, cell-based.
Data set [34] relates to MONO-MAC-6. Briefly: Inhibition of CXCL11 mRNA expression in LPS/INF-gamma stimulated human MONO-MAC-6 cells at 30 uM preincubated for 1 hr followed by LPS/INF-gamma stimulation measured after 16 hrs. It counts as functional, cell-based.
Data set [35] deals with MONO-MAC-6. The experiment in a line: Inhibition of IL-8 mRNA expression in LPS/INF-gamma stimulated human MONO-MAC-6 cells at 30 uM preincubated for 1 hr followed by LPS/INF-gamma stimulation measured after 16 hrs. Format: functional, cell-based.
Data set [36] concerns MONO-MAC-6. Briefly: Inhibition of CCL1 mRNA expression in LPS/INF-gamma stimulated human MONO-MAC-6 cells at 30 uM preincubated for 1 hr followed by LPS/INF-gamma stimulation measured after 16 hrs. It counts as functional, cell-based.
The test system of data set [37] is MONO-MAC-6. The experiment in a line: Inhibition of CCL3 mRNA expression in LPS/INF-gamma stimulated human MONO-MAC-6 cells at 30 uM preincubated for 1 hr followed by LPS/INF-gamma stimulation measured after 16 hrs. It counts as functional, cell-based.
Data set [38] in a line: Effect on GAPDH mRNA expression in human MONO-MAC-6 cells at 30 to 60 uM preincubated for 1 hr followed by LPS/INF-gamma stimulation measured after 4 hrs by quantitative RT-PCR analysis. It counts as ADME, cell-based. As to conditions: mono-mac-6, 4 h.

`CC(C)[C@H]1CC[C@]23C[C@@H]4[C@H](C)C(=O)[C@H]5O[C@]54[C@@]2(C)CC(=O)[C@]13C`: the inhibition result in the data set on MONO-MAC-6 [1] was “Dose-dependent effect”. For the same compound, the Activity entry in data set [2], in [3] and in [22] was “Non-Toxic” throughout. Further, the pIC50 in data set [4] is 6.40 to 6.49; in data set [5], 6.00 to 6.10; in the data set on MONO-MAC-6 [6], 5.92 to 6.05. Also, the result in [7], in [8], in [9], in [10], in [11] and in data set [12] was Active. Moreover, the inhibition result in the data set on MONO-MAC-6 [13], with MONO-MAC-6 [14], with MONO-MAC-6 [15], with MONO-MAC-6 [16], in the data set with MONO-MAC-6 [17] and in the data set with MONO-MAC-6 [18] was “Active” each time. In addition, the inhibition entry in the data set with MONO-MAC-6 [19], with MONO-MAC-6 [20] and with MONO-MAC-6 [21] was “Active” each time.

In the case of `C=C[C@H]1CC[C@]23C[C@@H]4[C@H](C)[C@@H](O)[C@H]5O[C@@]45[C@@]2(C)CC(=O)[C@]13C`, the Activity result in data set [2] and in data set [3] was “Non-Toxic” throughout. The pIC50 (in data set [4]; in [5]; in the data set on MONO-MAC-6 [6]) was under 4.30 each time.

Consider `CC(C)[C@H]1CC[C@]23C[C@@H]4[C@H](C)C(=O)[C@H]5O[C@]54[C@@]2(C)[C@@H](O)C(=O)[C@]13C`, for which, in the data set on MONO-MAC-6 [1], the inhibition result was “Dose-dependent effect”. For the same compound, the Activity entry in data set [2], in data set [3] and in data set [38] was “Non-Toxic” in each case. For the same compound, the pIC50 in data set [4] is 4.60 to 4.70; in [5], 4.35 to 4.40; with MONO-MAC-6 [6], 5.12 to 5.15. Further, the result in data set [23], in [24], in data set [25], in data set [26], in data set [27] and in data set [28] was Active. Further, the inhibition result in the data set with MONO-MAC-6 [29], in the data set with MONO-MAC-6 [30], in the data set on MONO-MAC-6 [31], in the data set with MONO-MAC-6 [32], with MONO-MAC-6 [33] and in the data set with MONO-MAC-6 [34] was “Active” each time. For the same compound, the inhibition entry with MONO-MAC-6 [35], with MONO-MAC-6 [36] and with MONO-MAC-6 [37] was “Active” each time.

Values taken from ChEMBL document CHEMBL3872242, “Anti-inflammatory tetraquinane diterpenoids from a Crinipellis species” (Bioorg Med Chem, 2017).
